Data published in US8771687B2, “Methods for treating a tumor using an antibody that specifically binds GRP94” (University of Pittsburgh—Of the Commonwealth System of …, priority 2010, dated 2014).

Key:
[1] = test system: BRAF mutated advanced melanoma; conditions: cited from earlier work
[2] = test system: advanced melanoma with the V600E BRAF mutation; conditions: patients with the V600E BRAF mutation, Phase I; cited from earlier work
[3] = test system: GRP94 expression by M21 melanoma cell line; assay: Effect of BRAF-I on GRP94 expression, staining with mAb W9, flow cytometry; format: cell-based, human; conditions: M21 cells, 1 μM of PLX4720, 14 days, vs untreated cells
Protocol: Effect of BRAF-I on GRP94 expression by M21 melanoma cell line. Cells (2×10^5/ml) were incubated in RPMI 1640 medium containing 10% FCS with 1 μM of BRAF-I for 14 days. […] Untreated cells were used as control. Percentage of stained cells and mean fluorescence intensity (MFI) are indicated.
M21 cells were cultured in RPMI 1640 medium supplemented with 10% FBS and 1 μM of PLX4720. Cells were harvested after 14 days of culture, and washed twice with PBS-BSA. Cells (1×10^5/sample), and were stained with 1 μg of anti-GRP94 mAb W9. Human IgG (HIg) and untreated cells were used as controls. Following an incubation of 30 min at 4° C., cells were washed three times with PBS containing 2% of BSA (PBS-BSA). Cells were then incubated with an appropriate dilution of PE-conjugated anti-human IgG for 30 min at 4° C. Cells were washed and fixed with 2% PFA. Immunofluorescence was measured using a Cyan cytofluorimeter.
M21 cells were cultured in RPMI 1640 medium supplemented with 10% FBS and 1 μM of PLX4720. Cells were harvested after 14 days of culture, and washed twice with PBS-BSA. Cells (1×10^5/sample), and were stained with 1 μg of anti-GRP94 mAb W9. Human IgG (HIg) and untreated cells were used as controls. Following an incubation of 30 min at 4° C., cells were washed three times with PBS containing 2% of BSA (PBS-BSA). […]

[4] = test system: V600E mutated melanoma cell lines sensitive to BRAF-I; assay: Development of secondary resistance on in vitro treatment with increasing doses, MTT assay; format: cell-based, human; conditions: increasing doses (2.5-10 μM)
Protocol: The cell line M21 (harboring the V600E BRAF missense mutation) (4×10^5/well) was cultured in a 6-well plate containing RPMI 1640 medium supplemented with 10% FBS and 2.5 μM of PLX4720. Medium was changed every 4 days. On the 8th day the concentration of PLX4720 was increased to 5 μM. Cells were cultured under these conditions for 12 days changing the medium every 4 days. Then the concentration of PLX4720 in the medium was increased to 10 μM, and the medium has been changed every 3 days. Cells were cultured until when resistant colonies appeared (around 3 weeks). Cells were tested for resistance to BRAF-I PLX4720 by analyzing their growth in the presence of 10 μM of PLX4720, using the MTT assay.

SMILES	response rate ([1]; 32 BRAF mutated advanced melanoma patients, phase II study) [%]	median duration of response ([1]; patients, secondary resistance) [months]	tumor regression and overall survival [2]	expression of GRP94 [3]	time of in vitro treatment until cell lines became secondary resistant [4]
CCCS(=O)(=O)Nc1ccc(F)c(C(=O)c2c[nH]c3ncc(-c4ccc(Cl)cc4)cc23)c1F [PLX4032, Vemurafenib]	70	~8	effective in promoting tumor regression and increasing overall survival	–	–
CCCS(=O)(=O)Nc1ccc(F)c(C(=O)c2c[nH]c3ncc(Cl)cc23)c1F [PLX4720]	–	–	–	increased expression of GRP94	3-4 week
